Data published in ChEMBL document CHEMBL1154059, “Synthesis and biological evaluation of novel 4,5-bis(dialkylaminoalkyl)-substituted acridines as potent telomeric G-quadruplex ligands” (Eur J Med Chem, 2009).
pIC50: −log10 of the molar value.

Assays:
Nucleic Acid [1] = assay: Binding affinity to human telomeric DNA G-quadruplex assessed as change in melting temperature at 10 uM by FRET assay; assay type: nucleic-acid assay
Nucleic Acid [2] = assay: Binding affinity to human telomeric DNA G-quadruplex assessed as change in melting temperature at 1 uM by FRET assay; assay type: nucleic-acid assay
Nucleic Acid [3] = assay: Binding affinity to human telomeric DNA G-quadruplex assessed as change in melting temperature at 20 uM by FRET assay; assay type: nucleic-acid assay
Nucleic Acid [4] = assay: Binding affinity to human telomeric DNA G-quadruplex assessed as change in melting temperature at 5 uM by FRET assay; assay type: nucleic-acid assay
[5] = molecular target: Telomerase reverse transcriptase (Homo sapiens, UniProt O14746); assay: Inhibition of human telomerase in HT1080 cells by TRAP assay
Chain of Telomerase reverse transcriptase (O14746 whole entry): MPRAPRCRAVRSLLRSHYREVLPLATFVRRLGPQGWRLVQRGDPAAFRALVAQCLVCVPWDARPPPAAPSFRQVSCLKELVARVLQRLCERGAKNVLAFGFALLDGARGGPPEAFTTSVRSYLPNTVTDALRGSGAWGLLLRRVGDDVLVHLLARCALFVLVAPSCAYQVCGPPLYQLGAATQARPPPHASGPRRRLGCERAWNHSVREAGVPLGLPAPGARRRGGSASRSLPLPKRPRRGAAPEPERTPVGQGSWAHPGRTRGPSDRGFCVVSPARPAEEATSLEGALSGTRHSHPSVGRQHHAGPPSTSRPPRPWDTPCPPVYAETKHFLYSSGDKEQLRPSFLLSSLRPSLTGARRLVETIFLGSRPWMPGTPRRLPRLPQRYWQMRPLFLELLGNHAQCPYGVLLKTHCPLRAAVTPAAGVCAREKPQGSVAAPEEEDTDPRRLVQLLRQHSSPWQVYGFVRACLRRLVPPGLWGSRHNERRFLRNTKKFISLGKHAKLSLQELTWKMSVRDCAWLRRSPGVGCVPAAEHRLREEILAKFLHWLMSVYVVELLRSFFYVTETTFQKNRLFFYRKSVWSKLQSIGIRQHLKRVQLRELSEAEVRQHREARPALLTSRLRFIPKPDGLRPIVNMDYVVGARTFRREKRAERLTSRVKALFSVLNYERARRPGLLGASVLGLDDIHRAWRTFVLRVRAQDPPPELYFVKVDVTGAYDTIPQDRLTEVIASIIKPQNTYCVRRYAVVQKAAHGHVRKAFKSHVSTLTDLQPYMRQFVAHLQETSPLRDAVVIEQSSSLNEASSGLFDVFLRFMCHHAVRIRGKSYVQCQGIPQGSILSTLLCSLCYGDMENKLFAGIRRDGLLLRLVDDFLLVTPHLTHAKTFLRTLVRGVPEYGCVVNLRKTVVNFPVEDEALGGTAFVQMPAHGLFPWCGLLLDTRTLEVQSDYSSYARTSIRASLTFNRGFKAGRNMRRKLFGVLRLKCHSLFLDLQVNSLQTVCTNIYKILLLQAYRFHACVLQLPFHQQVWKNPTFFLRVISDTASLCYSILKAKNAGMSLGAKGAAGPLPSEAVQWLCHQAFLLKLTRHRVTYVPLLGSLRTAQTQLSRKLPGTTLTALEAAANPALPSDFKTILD

Row | Compound | ΔTm (Nucleic Acid [1]) [°C] | ΔTm (Nucleic Acid [2]) [°C] | ΔTm (Nucleic Acid [3]) [°C] | ΔTm (Nucleic Acid [4]) [°C] | pIC50 [5]
1 | C[N+]1(CC(=O)NCc2cccc3cc4cccc(CNC(=O)C[N+]5(C)CCCC5)c4nc23)CCCC1 | 7.4 | 0.3 | 9.8 | 4.3 | 4.57
2 | CCN(CC)CC(=O)NCc1cccc2cc3cccc(CNC(=O)CN(CC)CC)c3nc12 | – | – | 2.4 | – | –
3 | O=C(CCN1CCCCC1)NCc1cccc2cc3cccc(CNC(=O)CCN4CCCCC4)c3nc12 | 7.3 | 2.2 | 10.4 | 6.6 | < 4.52
4 | CN(C)CCC(=O)NCc1cccc2cc3cccc(CNC(=O)CCN(C)C)c3nc12 | – | – | 8.1 | 5 | < 4.52
5 | O=C(CN1CCCC1)NCc1cccc2cc3cccc(CNC(=O)CN4CCCC4)c3nc12 | – | – | 2.6 | 1.4 | < 4.52
6 | O=C(CN1CCCCC1)NCc1cccc2cc3cccc(CNC(=O)CN4CCCCC4)c3nc12 | – | 0 | 14.6 | 0.6 | –
7 | CCN(CC)CCC(=O)NCc1cccc2cc3cccc(CNC(=O)CCN(CC)CC)c3nc12 | 9.1 | 2.6 | 10.7 | 7.2 | –
8 | O=C(CCCN1CCCC1)NCc1cccc2cc3cccc(CNC(=O)CCCN4CCCC4)c3nc12 | 11.9 | 3 | 16.4 | 8.8 | 4.89
9 | c1ccc(CNCc2cccc3cc4cccc(CNCc5ccccc5)c4nc23)cc1 | – | – | 4.8 | – | –
10 | C[N+]1(CC(=O)NCc2cccc3cc4cccc(CNC(=O)C[N+]5(C)CCCCC5)c4nc23)CCCCC1 | 8.8 | 2.6 | 12.6 | 6.8 | 4.52
11 | CN(C)CC(=O)NCc1cccc2cc3cccc(CNC(=O)CN(C)C)c3nc12 | – | – | 3.6 | – | < 4.52
12 | CN1CCN(CCC(=O)NCc2cccc3cc4cccc(CNC(=O)CCN5CCN(C)CC5)c4nc23)CC1 | 2.6 | 0 | 4.6 | 0.5 | < 4.52
13 | NCc1cccc2cc3cccc(CN)c3nc12 | – | 0 | 7.3 | – | < 4.52
14 | c1cnc(NCc2cccc3cc4cccc(CNc5ncccn5)c4nc23)nc1 | – | – | 0 | – | –

Continued by rising pIC50 [5], values first:

Row | ΔTm (Nucleic Acid [1]) [°C] | ΔTm (Nucleic Acid [2]) [°C] | ΔTm (Nucleic Acid [3]) [°C] | ΔTm (Nucleic Acid [4]) [°C] | pIC50 [5] | Compound
15 | 8.1 | 1.3 | 10.2 | 3.7 | 4.92 | O=C(CCCN1CCCCC1)NCc1cccc2cc3cccc(CNC(=O)CCCN4CCCCC4)c3nc12
16 | – | – | 16.7 | 5.9 | 5.14 | C[N+](C)(C)CC(=O)NCc1cccc2cc3cccc(CNC(=O)C[N+](C)(C)C)c3nc12
17 | 4.3 | 0 | 7.6 | 2.8 | 5.22 | O=C(CCN1CCCC1)NCc1cccc2cc3cccc(CNC(=O)CCN4CCCC4)c3nc12
18 | – | – | 10.2 | 4 | 5.25 | CN(C)CCNCc1cccc2cc3cccc(CNCCN(C)C)c3nc12
19 | 8.7 | 2.3 | 12.6 | 6.8 | 5.40 | C[N+]1(CCC(=O)NCc2cccc3cc4cccc(CNC(=O)CC[N+]5(C)CCCC5)c4nc23)CCCC1
20 | 8.2 | 2.1 | 11 | 5.7 | 5.52 | C[N+](C)(C)CCC(=O)NCc1cccc2cc3cccc(CNC(=O)CC[N+](C)(C)C)c3nc12
21 | – | – | 17.7 | 6.7 | 6.82 | CN(C)CCCNCc1cccc2cc3cccc(CNCCCN(C)C)c3nc12
22 | 41.1 | 29.1 | – | 34.7 | 7.05 | CN(C)c1ccc(Nc2c3ccc(NC(=O)CCN4CCCC4)cc3nc3cc(NC(=O)CCN4CCCC4)ccc23)cc1
